For assay [1], the target named is T1, mTOR (Homo sapiens, UniProt P42345).
T1 construct: endogenous in cells; host or cells: Jurkat, clone E6-1 (ATCC TIB-152) cell lysate
Description: mTOR kinobeads assay (competitive binding in Jurkat cell lysate, immunodetection). Particulars: kinobeads assay. The method, boiled down: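 IC50 derived from dose-response curves of mTOR captured on immobilized phenylmorpholin-chromen beads, detected by antibody dot blot with infrared fluorescence.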

Assay [2] deals with T2, DNA-dependent protein kinase (DNA-PK) (Homo sapiens, UniProt P78527).
T2 construct: endogenous in cells; host or cells: Jurkat, clone E6-1 (ATCC TIB-152) cell lysate
T2 sequence (P78527 whole entry): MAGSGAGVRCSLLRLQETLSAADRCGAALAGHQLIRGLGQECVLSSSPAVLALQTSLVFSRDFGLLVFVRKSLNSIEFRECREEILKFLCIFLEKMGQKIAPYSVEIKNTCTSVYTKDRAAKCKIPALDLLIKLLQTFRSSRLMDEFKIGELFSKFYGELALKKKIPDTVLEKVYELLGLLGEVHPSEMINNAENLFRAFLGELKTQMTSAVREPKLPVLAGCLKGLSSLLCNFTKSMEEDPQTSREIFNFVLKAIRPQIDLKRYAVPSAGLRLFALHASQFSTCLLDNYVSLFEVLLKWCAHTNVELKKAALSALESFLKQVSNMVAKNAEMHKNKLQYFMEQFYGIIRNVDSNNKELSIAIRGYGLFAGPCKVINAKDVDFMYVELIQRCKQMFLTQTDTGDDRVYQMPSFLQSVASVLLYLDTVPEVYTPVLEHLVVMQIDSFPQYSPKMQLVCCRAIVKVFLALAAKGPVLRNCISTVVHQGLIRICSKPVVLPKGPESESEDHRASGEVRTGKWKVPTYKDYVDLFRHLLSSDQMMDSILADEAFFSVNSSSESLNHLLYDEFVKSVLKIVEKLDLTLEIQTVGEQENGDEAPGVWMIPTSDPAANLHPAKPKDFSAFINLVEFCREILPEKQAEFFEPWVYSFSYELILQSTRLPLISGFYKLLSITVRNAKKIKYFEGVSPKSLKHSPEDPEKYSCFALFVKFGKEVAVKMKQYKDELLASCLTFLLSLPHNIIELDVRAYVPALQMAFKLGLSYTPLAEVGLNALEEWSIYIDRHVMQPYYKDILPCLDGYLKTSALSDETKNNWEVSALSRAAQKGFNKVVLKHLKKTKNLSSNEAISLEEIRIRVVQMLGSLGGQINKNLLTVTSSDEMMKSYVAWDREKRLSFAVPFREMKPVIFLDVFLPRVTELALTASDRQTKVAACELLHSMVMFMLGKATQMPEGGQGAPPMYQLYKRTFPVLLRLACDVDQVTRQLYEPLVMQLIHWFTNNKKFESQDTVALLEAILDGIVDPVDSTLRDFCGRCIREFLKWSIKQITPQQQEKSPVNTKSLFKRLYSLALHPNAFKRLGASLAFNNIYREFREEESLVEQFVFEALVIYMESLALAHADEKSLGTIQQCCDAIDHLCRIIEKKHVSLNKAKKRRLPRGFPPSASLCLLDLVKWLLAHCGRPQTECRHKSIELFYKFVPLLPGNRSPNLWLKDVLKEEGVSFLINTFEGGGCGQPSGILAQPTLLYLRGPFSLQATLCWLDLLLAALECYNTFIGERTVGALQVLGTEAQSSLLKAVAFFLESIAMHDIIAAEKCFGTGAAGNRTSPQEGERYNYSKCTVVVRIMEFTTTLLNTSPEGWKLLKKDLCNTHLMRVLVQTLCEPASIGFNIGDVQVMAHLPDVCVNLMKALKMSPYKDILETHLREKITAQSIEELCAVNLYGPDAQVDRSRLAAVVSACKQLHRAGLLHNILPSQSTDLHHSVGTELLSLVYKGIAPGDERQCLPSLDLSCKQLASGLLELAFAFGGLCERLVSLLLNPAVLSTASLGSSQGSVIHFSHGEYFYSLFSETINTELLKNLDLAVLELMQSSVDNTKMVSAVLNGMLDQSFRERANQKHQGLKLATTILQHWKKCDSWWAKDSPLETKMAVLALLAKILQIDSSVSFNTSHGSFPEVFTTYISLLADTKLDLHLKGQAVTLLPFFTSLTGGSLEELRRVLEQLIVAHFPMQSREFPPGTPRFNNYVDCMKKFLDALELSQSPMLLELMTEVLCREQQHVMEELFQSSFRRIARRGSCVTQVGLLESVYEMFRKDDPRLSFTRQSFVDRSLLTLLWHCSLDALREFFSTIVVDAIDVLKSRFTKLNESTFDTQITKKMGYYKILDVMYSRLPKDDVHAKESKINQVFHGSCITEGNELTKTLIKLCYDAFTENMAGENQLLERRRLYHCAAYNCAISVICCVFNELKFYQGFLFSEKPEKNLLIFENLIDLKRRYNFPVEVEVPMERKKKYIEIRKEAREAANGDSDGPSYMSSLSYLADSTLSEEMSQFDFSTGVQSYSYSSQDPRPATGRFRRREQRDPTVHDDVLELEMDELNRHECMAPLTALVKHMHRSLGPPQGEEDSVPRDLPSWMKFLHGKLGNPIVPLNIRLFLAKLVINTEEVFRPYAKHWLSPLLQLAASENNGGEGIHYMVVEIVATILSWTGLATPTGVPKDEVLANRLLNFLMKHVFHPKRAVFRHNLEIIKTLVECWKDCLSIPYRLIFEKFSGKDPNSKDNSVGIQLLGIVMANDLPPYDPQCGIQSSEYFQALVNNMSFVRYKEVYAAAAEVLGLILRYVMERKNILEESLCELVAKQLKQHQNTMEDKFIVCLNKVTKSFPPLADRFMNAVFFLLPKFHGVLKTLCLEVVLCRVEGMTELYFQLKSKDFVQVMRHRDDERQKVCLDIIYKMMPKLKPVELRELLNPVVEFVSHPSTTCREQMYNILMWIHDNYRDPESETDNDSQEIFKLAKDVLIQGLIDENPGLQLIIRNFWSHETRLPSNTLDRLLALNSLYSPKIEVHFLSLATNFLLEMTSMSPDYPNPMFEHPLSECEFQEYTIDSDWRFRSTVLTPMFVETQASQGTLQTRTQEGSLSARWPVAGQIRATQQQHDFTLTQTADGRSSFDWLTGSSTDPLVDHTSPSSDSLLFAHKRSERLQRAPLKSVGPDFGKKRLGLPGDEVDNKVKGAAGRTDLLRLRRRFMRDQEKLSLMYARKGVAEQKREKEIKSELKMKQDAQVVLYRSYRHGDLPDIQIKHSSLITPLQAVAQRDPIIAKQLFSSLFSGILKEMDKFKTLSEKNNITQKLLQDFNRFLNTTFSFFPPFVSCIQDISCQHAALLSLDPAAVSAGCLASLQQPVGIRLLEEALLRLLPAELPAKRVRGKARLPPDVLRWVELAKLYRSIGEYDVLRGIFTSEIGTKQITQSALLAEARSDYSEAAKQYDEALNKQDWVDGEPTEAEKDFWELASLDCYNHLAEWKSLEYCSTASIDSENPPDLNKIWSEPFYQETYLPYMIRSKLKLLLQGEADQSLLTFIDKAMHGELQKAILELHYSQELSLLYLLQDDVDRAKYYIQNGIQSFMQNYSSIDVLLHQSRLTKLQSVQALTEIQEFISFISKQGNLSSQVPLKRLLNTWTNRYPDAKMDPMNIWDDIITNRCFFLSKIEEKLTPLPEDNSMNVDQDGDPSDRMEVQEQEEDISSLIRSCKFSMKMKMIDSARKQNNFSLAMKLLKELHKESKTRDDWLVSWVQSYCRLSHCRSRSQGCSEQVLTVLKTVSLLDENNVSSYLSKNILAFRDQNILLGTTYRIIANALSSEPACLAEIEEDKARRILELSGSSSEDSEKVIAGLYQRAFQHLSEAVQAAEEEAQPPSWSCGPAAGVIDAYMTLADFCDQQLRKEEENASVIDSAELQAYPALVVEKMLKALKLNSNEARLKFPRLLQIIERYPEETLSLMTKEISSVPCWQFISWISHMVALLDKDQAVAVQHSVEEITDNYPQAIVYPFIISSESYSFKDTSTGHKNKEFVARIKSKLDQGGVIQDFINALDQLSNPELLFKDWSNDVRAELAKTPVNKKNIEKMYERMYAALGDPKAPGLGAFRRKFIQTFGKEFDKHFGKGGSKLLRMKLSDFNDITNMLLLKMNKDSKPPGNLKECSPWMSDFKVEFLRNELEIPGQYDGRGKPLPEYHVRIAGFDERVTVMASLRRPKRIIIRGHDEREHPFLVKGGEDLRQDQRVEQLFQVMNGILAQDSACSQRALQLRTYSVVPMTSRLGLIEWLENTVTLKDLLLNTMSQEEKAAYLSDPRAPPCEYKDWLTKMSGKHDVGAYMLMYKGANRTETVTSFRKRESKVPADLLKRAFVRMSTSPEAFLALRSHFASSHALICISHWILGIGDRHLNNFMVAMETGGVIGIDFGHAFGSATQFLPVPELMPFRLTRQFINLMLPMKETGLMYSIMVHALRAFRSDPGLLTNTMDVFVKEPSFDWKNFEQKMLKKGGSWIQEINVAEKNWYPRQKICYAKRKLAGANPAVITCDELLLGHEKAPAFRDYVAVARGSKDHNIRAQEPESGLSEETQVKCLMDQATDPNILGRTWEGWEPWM
Description: kinobeads assay, DNA-PK. Type of assay: binding. Conditions: kinobeads assay. The method, boiled down: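 Competitive binding in Jurkat cell lysate (5 mg/ml total protein): test compounds at various concentrations competed with beads bearing immobilized phenylmorpholin-chromen ligand. Bead-bound kinases were eluted and quantified by antibody dot blot with infrared detection; IC50 values came from dose-response curves.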

The mark [3] stands for this setting: Table 4, read-out: Inhibition values (IC50) mTor.
[4] abbreviates: Table 6, read-out: Inhibition values (IC50) mTOR.
[5] abbreviates: Table 4, read-out: Inhibition values (IC50) DNA-PK.
Setting [6] is: Table 6, read-out: Inhibition values (IC50) DNAPK.

Structures are written as SMILES. Where two headings read alike, the source gives them in different places.

For orientation: IC50 means the concentration at which inhibition is half-maximal.

With `CCNC(=O)Nc1ccc(-c2nc3c(c(N4CCOC[C@@H]4C)n2)CN(CC2CC2)C3)cc1` [Example 28, (S)-1-(4-(6-(cyclopropylmethyl)-4-(3-methylmorpholino)-6,7-dihydro-5H-pyrrolo[3,4-d]pyrimidin-2-yl)phenyl)-3-ethylurea], the concentration for half-maximal inhibition (IC50) in assay [1] (setting [3]) is under 100 nM; in assay [1] (setting [4]), under 100 nM; in assay [2] (setting [5]), over 10000 nM; in assay [2] (setting [6]) it was over 10000 nM.

As for `CCNC(=O)Nc1ccc(-c2nc3c(c(N4CCOC[C@@H]4C)n2)CN(Cc2ccc(F)cc2)C3)cc1` [Example 29, (S)-1-ethyl-3-(4-(6-(4-fluorobenzyl)-4-(3-methylmorpholino)-6,7-dihydro-5H-pyrrolo[3,4-d]pyrimidin-2-yl)phenyl)urea], the IC50 was 100 to 1000 nM in assay [1] (setting [3]), 100 to 1000 nM in assay [1] (setting [4]), over 10000 nM in assay [2] (setting [5]) and over 10000 nM in assay [2] (setting [6]).

As for `C[C@H]1COCCN1c1nc(-c2ccc(NC(=O)NC3CC3)cc2)nc2c1CN(CC1CC1)C2` [Example 30], the IC50 in assay [1] (setting [3]) is under 100 nM; in assay [1] (setting [4]), under 100 nM; in assay [2] (setting [5]), over 10000 nM; in assay [2] (setting [6]), over 10000 nM.

As for `CCNC(=O)Nc1ccc(-c2nc3c(c(N4CCOC[C@@H]4C)n2)CN(S(C)(=O)=O)C3)cc1` [Example 32, (S)-1-ethyl-3-(4-(4-(3-methylmorpholino)-6-(methylsulfonyl)-6,7-dihydro-5H-pyrrolo[3,4-d]pyrimidin-2-yl)phenyl)urea], the IC50 in assay [1] (setting [3]) is under 100 nM; in assay [1] (setting [4]), under 100 nM; in assay [2] (setting [5]), over 10000 nM; in assay [2] (setting [6]) it was over 10000 nM.

`CCNC(=O)N1Cc2nc(-c3ccc(NC(=O)NC4CC4)cc3)nc(N3CCOC[C@@H]3C)c2C1` [Example 33, (S)-2-(4-(3-cyclopropylureido)phenyl)-N-ethyl-4-(3-methylmorpholino)-5H-pyrrolo[3,4-d]pyrimidine-6(7H)-carboxamide]: the IC50 in assay [1] (setting [3]) was under 100 nM; in assay [1] (setting [4]), under 100 nM; in assay [2] (setting [5]) it was over 10000 nM; in assay [2] (setting [6]) it was over 10000 nM.

Take `CCOC(=O)N1Cc2nc(-c3ccc(NC(=O)NC4CC4)cc3)nc(N3CCOC[C@@H]3C)c2C1` [Example 34, (S)-ethyl 2-(4-(3-cyclopropylureido)phenyl)-4-(3-methylmorpholino)-5H-pyrrolo[3,4-d]pyrimidine-6(7H)-carboxylate]: the IC50 is under 100 nM in assay [1] (setting [3]), under 100 nM in assay [1] (setting [4]), over 10000 nM in assay [2] (setting [5]) and over 10000 nM in assay [2] (setting [6]).

For `CCNC(=O)Nc1ccc(-c2nc3c(c(N4CCOC[C@@H]4C)n2)CCN(C)C3)cc1` [Example 35, (S)-1-ethyl-3-(4-(7-methyl-4-(3-methylmorpholino)-5,6,7,8-tetrahydropyrido[3,4-d]pyrimidin-2-yl)phenyl)urea], the IC50 in assay [1] (setting [3]) was under 100 nM; in assay [1] (setting [4]), under 100 nM; in assay [2] (setting [5]), over 10000 nM; in assay [2] (setting [6]), over 10000 nM.

As for `CCN1Cc2nc(-c3ccc(NC(=O)NC4CC4)cc3)nc(N3CCOC[C@@H]3C)c2C1` [Example 36, (S)-1-cyclopropyl-3-(4-(6-ethyl-4-(3-methylmorpholino)-6,7-dihydro-5H-pyrrolo[3,4-d]pyrimidin-2-yl)phenyl)urea], the 50% inhibitory concentration (IC50) in assay [1] (setting [3]) is under 100 nM; in assay [1] (setting [4]), under 100 nM; in assay [2] (setting [5]), over 10000 nM; in assay [2] (setting [6]) it was over 10000 nM.

Regarding `CCNC(=O)Nc1ccc(-c2nc3c(c(N4CCOC[C@@H]4C)n2)CCN(CC2CC2)C3)cc1` [Example 37, (S)-1-(4-(7-(cyclopropylmethyl)-4-(3-methylmorpholino)-5,6,7,8-tetrahydropyrido[3,4-d]pyrimidin-2-yl)phenyl)-3-ethylurea], the 50% inhibitory concentration (IC50) in assay [1] (setting [3]) is under 100 nM; in assay [1] (setting [4]) it was under 100 nM; in assay [2] (setting [5]) it was over 10000 nM; in assay [2] (setting [6]), over 10000 nM.

In the case of `C[C@H]1COCCN1c1nc(-c2ccc(NC(=O)NC3CC3)cc2)nc2c1CN(C)C2` [Example 38, (S)-1-cyclopropyl-3-(4-(6-methyl-4-(3-methylmorpholino)-6,7-dihydro-5H-pyrrolo[3,4-d]pyrimidin-2-yl)phenyl)urea], the half-maximal inhibitory concentration (IC50) in assay [1] (setting [3]) was under 100 nM; in assay [1] (setting [4]), under 100 nM; in assay [2] (setting [5]) it was over 10000 nM; in assay [2] (setting [6]), over 10000 nM.

Take `CCNC(=O)Nc1ccc(-c2nc3c(c(N4CCOC[C@@H]4C)n2)CN(CC)C3)cc1` [Example 39, (S)-1-ethyl-3-(4-(6-ethyl-4-(3-methylmorpholino)-6,7-dihydro-5H-pyrrolo[3,4-d]pyrimidin-2-yl)phenyl)urea]: the IC50 was under 100 nM in assay [1] (setting [3]), under 100 nM in assay [1] (setting [4]), over 10000 nM in assay [2] (setting [5]) and over 10000 nM in assay [2] (setting [6]).

Regarding `C[C@H]1COCCN1c1nc(-c2ccc(NC(=O)NC3CC3)cc2)nc2c1CCN(CC1CC1)C2` [Example 40, (S)-1-cyclopropyl-3-(4-(7-(cyclopropylmethyl)-4-(3-methylmorpholino)-5,6,7,8-tetrahydropyrido[3,4-d]pyrimidin-2-yl)phenyl)urea], the IC50 in assay [1] (setting [3]) is under 100 nM; in assay [1] (setting [4]), under 100 nM; in assay [2] (setting [5]), over 10000 nM; in assay [2] (setting [6]), over 10000 nM.

Consider `C[C@H]1COCCN1c1nc(-c2ccc(NC(=O)NC3CC3)cc2)nc2c1CCN(CC(C)(C)C)C2` [Example 41, (S)-1-cyclopropyl-3-(4-(4-(3-methylmorpholino)-7-neopentyl-5,6,7,8-tetrahydropyrido[3,4-d]pyrimidin-2-yl)phenyl)urea], for which the half-inhibitory concentration (IC50) was 100 to 1000 nM in assay [1] (setting [3]), 100 to 1000 nM in assay [1] (setting [4]), over 10000 nM in assay [2] (setting [5]) and over 10000 nM in assay [2] (setting [6]).

Take `CC(C)CN1CCc2c(nc(-c3ccc(NC(=O)NC4CC4)cc3)nc2N2CCOC[C@@H]2C)C1` [Example 42, (S)-1-cyclopropyl-3-(4-(7-isobutyl-4-(3-methylmorpholino)-5,6,7,8-tetrahydropyrido[3,4-d]pyrimidin-2-yl)phenyl)urea]: the concentration for half-maximal inhibition (IC50) was under 100 nM in assay [1] (setting [3]), under 100 nM in assay [1] (setting [4]), over 10000 nM in assay [2] (setting [5]) and over 10000 nM in assay [2] (setting [6]).

`CC(C)N1CCc2c(nc(-c3ccc(NC(=O)NC4CC4)cc3)nc2N2CCOC[C@@H]2C)C1` [Example 43, (S)-1-cyclopropyl-3-(4-(7-isopropyl-4-(3-methylmorpholino)-5,6,7,8-tetrahydropyrido[3,4-d]pyrimidin-2-yl)phenyl)urea]: the 50% inhibitory concentration (IC50) in assay [1] (setting [3]) was under 100 nM; in assay [1] (setting [4]), under 100 nM; in assay [2] (setting [5]) it was over 10000 nM; in assay [2] (setting [6]), over 10000 nM.

On to `CC(C)C(=O)N1Cc2nc(-c3ccc(NC(=O)NC4CC4)cc3)nc(N3CCOC[C@@H]3C)c2C1` [Example 44, (S)-1-cyclopropyl-3-(4-(6-isobutyryl-4-(3-methylmorpholino)-6,7-dihydro-5H-pyrrolo[3,4-d]pyrimidin-2-yl)phenyl)urea], for which the IC50 in assay [1] (setting [3]) was under 100 nM; in assay [1] (setting [4]) it was under 100 nM; in assay [2] (setting [5]) it was over 10000 nM; in assay [2] (setting [6]), over 10000 nM.

For `C[C@H]1COCCN1c1nc(-c2ccc(NC(=O)NC3CC3)cc2)nc2c1CN(C(=O)C(C)(C)C)C2` [Example 45, (S)-1-cyclopropyl-3-(4-(4-(3-methylmorpholino)-6-pivaloyl-6,7-dihydro-5H-pyrrolo[3,4-d]pyrimidin-2-yl)phenyl)urea], the half-maximal inhibitory concentration (IC50) in assay [1] (setting [3]) is 100 to 1000 nM; in assay [1] (setting [4]), 100 to 1000 nM; in assay [2] (setting [5]), over 10000 nM; in assay [2] (setting [6]) it was over 10000 nM.

Regarding `CC(C)N1Cc2nc(-c3ccc(NC(=O)NC4CC4)cc3)nc(N3CCOC[C@@H]3C)c2C1` [Example 46, (S)-1-cyclopropyl-3-(4-(6-isopropyl-4-(3-methylmorpholino)-6,7-dihydro-5H-pyrrolo[3,4-d]pyrimidin-2-yl)phenyl)urea], the half-inhibitory concentration (IC50) is under 100 nM in assay [1] (setting [3]), under 100 nM in assay [1] (setting [4]), over 10000 nM in assay [2] (setting [5]) and over 10000 nM in assay [2] (setting [6]).

As to `CNC(=O)Nc1ccc(-c2nc3c(c(N4CCOC[C@@H]4C)n2)CN(CC2CC2)C3)cc1` [Example 47, (S)-1-(4-(6-(cyclopropylmethyl)-4-(3-methylmorpholino)-6,7-dihydro-5H-pyrrolo[3,4-d]pyrimidin-2-yl)phenyl)-3-methylurea], the 50% inhibitory concentration (IC50) was under 100 nM in assay [1] (setting [3]), under 100 nM in assay [1] (setting [4]), over 10000 nM in assay [2] (setting [5]) and over 10000 nM in assay [2] (setting [6]).

Take `C[C@H]1COCCN1c1nc(-c2ccc(NC(N)=O)cc2)nc2c1CN(CC1CC1)C2` [Example 48, (S)-1-(4-(6-(cyclopropylmethyl)-4-(3-methylmorpholino)-6,7-dihydro-5H-pyrrolo[3,4-d]pyrimidin-2-yl)phenyl)urea]: the IC50 in assay [1] (setting [3]) was 100 to 1000 nM; in assay [1] (setting [4]) it was 100 to 1000 nM; in assay [2] (setting [5]), over 10000 nM; in assay [2] (setting [6]) it was over 10000 nM.

Turning to `CCCNC(=O)Nc1ccc(-c2nc3c(c(N4CCOC[C@@H]4C)n2)CN(CC2CC2)C3)cc1` [Example 49, (S)-1-(4-(6-(cyclopropylmethyl)-4-(3-methylmorpholino)-6,7-dihydro-5H-pyrrolo[3,4-d]pyrimidin-2-yl)phenyl)-3-propylurea], the 50% inhibitory concentration (IC50) in assay [1] (setting [3]) was 100 to 1000 nM; in assay [1] (setting [4]), 100 to 1000 nM; in assay [2] (setting [5]), over 10000 nM; in assay [2] (setting [6]), over 10000 nM.

For `CC(C)NC(=O)Nc1ccc(-c2nc3c(c(N4CCOC[C@@H]4C)n2)CN(CC2CC2)C3)cc1` [Example 50, (S)-1-(4-(6-(cyclopropylmethyl)-4-(3-methylmorpholino)-6,7-dihydro-5H-pyrrolo[3,4-d]pyrimidin-2-yl)phenyl)-3-isopropylurea], the IC50 in assay [1] (setting [3]) was 100 to 1000 nM; in assay [1] (setting [4]) it was 100 to 1000 nM; in assay [2] (setting [5]), over 10000 nM; in assay [2] (setting [6]) it was over 10000 nM.

The values are drawn from patent publication US8785457B2 (Cellzome Limited, priority 2009, dated 2014).
